What all share (assay type): biochemical
One assay concerns the target PIM-1 (Homo sapiens (Human), UniProt P11309). The experiment in a line: inhibition test on kinase PIM-1 (residual activity, IC50). As to conditions: for remaining activity at 10 µM: read-out: Percentage of residual activity PIM-1. The text has this:
(§1) MKK1, ERK 1, ERK 2, JNK1, JNK2, JNK3, p38a MAPK, p38b MAPK, p38g MAPK, p38s MAPK, ERK8, RSK1, RSK2, PDK1, PKBa, PKBb, SGK1, S6K1, PKA, ROCK2, PRK2, PKCa, PKC zeta, PKD1, MSK1, MNK1, MNK2, MAPKAP-K2, MAPKAP-K3, PRAK, CAMKKa, CAMKKb, CAMK1, SmMLCK, PHK, CHK1, CHK2, GSK3b, CDK2/cyclin A, PLK1, PLK1 (Okadaic acid), Aurora B, Aurora C, AMPK, MARK3, BRSK2, MELK, CK1, CK2, NEK2a, NEK6, NEK7, IKKb, PIM-1, PIM-2, PIM-3, SRPK1, MST2, EF2K, HIPK2, HIPK3, PAK-4, PAK5, PAK6, Src, Lck, CSK.
(§2) The results in terms of residual activity of the kinases after being placed in contact with the compounds of Examples 2, 3 and 5, at a concentration of 10 μM (10 μmol/L), are shown in Table 1 below.
(§3) The higher the residual activity of the kinase tested, the lower the inhibitory activity of the test compounds on the tested kinase.
(§4) The compounds according to the invention were then tested on the kinases PIM-1, PIM-2 and PIM-3.
(§5) The results in terms of percentage of residual activity after placing the compounds according to the invention in contact with each of the kinases PIM-1, PIM-2 and PIM-3 are given in Table 2 below.
(§6) The higher the residual activity, the lower the inhibitory activity of the test compounds.
(§7) The mean inhibitory concentrations (IC50) of certain preferred compounds of the invention were determined in the following manner: the IC50 values were measured after performing the inhibition tests on the kinases PIM-1, PIM-2 and PIM-3 at ten different concentrations for each test compound, and the IC50 value was determined from the dose-inhibition curves obtained.

A further assay has as its target PIM-3 (Homo sapiens (Human), UniProt Q86V86). The experiment in a line: inhibition test on kinase PIM-3 (residual activity, IC50). As to conditions: for remaining activity at 10 µM: product at 10 μmol/L, Table 2, N.I. = not inhibitory, read-out: Percentage of residual activity PIM-3; for IC50: ten concentrations, dose-inhibition curve.
Description: as §1, §2, §3, §4, §5, §6, §7

The next assay has as its target PIM-2 (Homo sapiens (Human), UniProt Q9P1W9). Put plainly: inhibition test on kinase PIM-2 (residual activity, IC50). As to conditions: product at 10 μmol/L, Table 2, N.I. = not inhibitory; for remaining activity at 10 µM: read-out: Percentage of residual activity PIM-2.
Description: as §1, §2, §3, §4, §5, §6, §7

The mark [1] stands for this setting: product at 10 μmol/L, Table 2, N.I. = not inhibitory.

The structures appear in SMILES notation.

Sequence of PIM-2 (Q9P1W9 whole entry, species assumed): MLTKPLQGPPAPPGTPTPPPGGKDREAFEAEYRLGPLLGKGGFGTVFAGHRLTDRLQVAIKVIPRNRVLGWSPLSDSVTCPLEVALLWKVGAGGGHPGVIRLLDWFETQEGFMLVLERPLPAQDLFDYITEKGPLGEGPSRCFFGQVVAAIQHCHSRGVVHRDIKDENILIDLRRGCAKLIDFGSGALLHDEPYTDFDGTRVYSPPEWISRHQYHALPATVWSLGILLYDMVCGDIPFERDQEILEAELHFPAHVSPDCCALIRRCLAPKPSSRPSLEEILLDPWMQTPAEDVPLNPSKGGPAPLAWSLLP
Sequence of PIM-1 (P11309 whole entry, species assumed): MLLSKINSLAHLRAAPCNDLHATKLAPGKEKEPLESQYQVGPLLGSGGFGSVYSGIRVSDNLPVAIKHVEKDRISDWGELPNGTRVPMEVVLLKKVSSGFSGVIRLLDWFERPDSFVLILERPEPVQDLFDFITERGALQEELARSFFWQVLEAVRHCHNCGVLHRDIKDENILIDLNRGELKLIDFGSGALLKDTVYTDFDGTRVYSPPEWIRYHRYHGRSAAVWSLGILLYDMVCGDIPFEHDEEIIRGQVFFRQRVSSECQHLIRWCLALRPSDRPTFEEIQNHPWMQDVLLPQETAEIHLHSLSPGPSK

Turning to `O=S(=O)(c1ccccc1)n1ccc2ccc3c4ccccc4[nH]c3c21` [Example 1, 1-benzenesulfonyl-1,10-dihydropyrrolo[2,3-a]carbazole], the results for the remaining activity at 10 µM on PIM-1 (setting [1]), on PIM-3 and on PIM-2 were 61%, 64% and 62%, respectively.

For the compound `OCc1c[nH]c2c1ccc1c3ccccc3[nH]c12` [Example 4, (1,10-dihydropyrrolo[2,3-a]carbazol-3-yl)methanol], the remaining activity at 10 µM came to 28% at PIM-1 (setting [1]), 18% on PIM-3 and 47% on PIM-2.

For `O=C(c1c[nH]c2c1ccc1c3ccccc3[nH]c12)C(F)(F)F` [Example 6, 1-(1,10-dihydropyrrolo[2,3-a]carbazol-3-yl)-2,2,2-trifluoroethanone], the remaining activity at 10 µM was 20% on PIM-1 (setting [1]), 7% on PIM-3 and 30% on PIM-2. In addition, the IC50 at PIM-3 turned out to be 170 nM.

Take `CCOC(=O)C(=O)c1c[nH]c2c1ccc1c3ccccc3[nH]c12` [Example 8, ethyl 2-(1,10-dihydropyrrolo[2,3-a]carbazol-3-yl)-2-oxoacetate]: the remaining activity at 10 µM was found to be 44% on PIM-1 (setting [1]), 33% on PIM-3 and 47% on PIM-2.

`OCCc1c[nH]c2c1ccc1c3ccccc3[nH]c12` [Example 9, 2-(1,10-dihydropyrrolo[2,3-a]carbazol-3-yl)ethanol]: the figures for the remaining activity at 10 µM on PIM-1 (setting [1]), on PIM-3 and at PIM-2 were 35%, 21% and 50%, respectively.

Take `CCN(CC)C(=O)C(=O)c1c[nH]c2c1ccc1c3ccccc3[nH]c12` [Example 10, 2-(1,10-dihydropyrrolo[2,3-a]carbazol-3-yl)-N,N-diethyl-2-oxoacetamide]: the figures for the remaining activity at 10 µM on PIM-1 (setting [1]), at PIM-3 and on PIM-2 were 54%, 39% and 51%, respectively.

In the case of `CCN(CC)CCc1c[nH]c2c1ccc1c3ccccc3[nH]c12` [Example 11, 2-(1,10-dihydropyrrolo[2,3-a]carbazol-3-yl)-N,N-diethylethanamine], the results for the remaining activity at 10 µM at PIM-1 (setting [1]), at PIM-3 and on PIM-2 were 39%, 25% and 78%, respectively.

For the compound `CCN(CC)CC(O)c1c[nH]c2c1ccc1c3ccccc3[nH]c12` (stereo not shown) [Example 12, 1-(1,10-dihydropyrrolo[2,3-a]carbazol-3-yl)-2-diethylaminoethanol], the remaining activity at 10 µM on PIM-1 (setting [1]) turned out to be 24%; on PIM-3, 16%; on PIM-2, 53%.

Regarding `CCN(CC)C(=O)/C(=N\O)c1c[nH]c2c1ccc1c3ccccc3[nH]c12` [Example 13, 2-(1,10-dihydropyrrolo[2,3-a]carbazol-3-yl)-N,N-diethyl-2-hydroxyiminoethanamide], the remaining activity at 10 µM at PIM-1 (setting [1]) worked out at 41%; at PIM-3 it was 21%; at PIM-2, 27%.

On to `O=S(=O)(c1ccccc1)n1ccc2ccc3c4cc(Br)ccc4[nH]c3c21` [Example 14, 1-benzenesulfonyl-7-bromo-1,10-dihydropyrrolo-[2,3-a]carbazole], for which the values for the remaining activity at 10 µM on PIM-1 (setting [1]), at PIM-3 and on PIM-2 were 51%, 61% and 52%, respectively.

For the compound `Brc1ccc2[nH]c3c(ccc4cc[nH]c43)c2c1` [Example 15, 7-bromo-1,10-dihydropyrrolo[2,3-a]carbazole], the remaining activity at 10 µM at PIM-1 (setting [1]) amounted to 12%; at PIM-3, 8%; on PIM-2, 46%. The compound also registered an IC50 against PIM-3 of 440 nM.

In the case of `O=Cc1c[nH]c2c1ccc1c3cc(Br)ccc3[nH]c12` [Example 16, 7-bromo-1,10-dihydropyrrolo[2,3-a]carbazole-3-carbaldehyde], the remaining activity at 10 µM at PIM-1 (setting [1]) stood at 6%; at PIM-3, 6%; at PIM-2, 57%. Besides, the IC50 on PIM-1 (ten concentrations, dose-inhibition curve) was 570 nM; at PIM-3 it was 40 nM.

With `COc1cccc(-c2ccc3[nH]c4c(ccc5cc[nH]c54)c3c2)c1` [Example 18, 7-(3-methoxyphenyl)-1,10-dihydropyrrolo[2,3-a]-carbazole], the remaining activity at 10 µM stood at 46% at PIM-1 (setting [1]), 39% at PIM-3 and 51% on PIM-2.

As for `Brc1ccc2c(c1)[nH]c1c2ccc2cc[nH]c21` [Example 25, 8-bromo-1,10-dihydropyrrolo[2,3-a]carbazole], the remaining activity at 10 µM at PIM-1 (setting [1]) is 74%; at PIM-3 it was 15%; at PIM-2, 93%.

`Brc1cccc2[nH]c3c(ccc4cc[nH]c43)c12` [Example 26, 6-bromo-1,10-dihydropyrrolo[2,3-a]carbazole]: the remaining activity at 10 µM came to 8% at PIM-1 (setting [1]), 11% at PIM-3 and 37% on PIM-2.

In the case of `Brc1cccc2c1[nH]c1c2ccc2cc[nH]c21` [Example 27, 9-bromo-1,10-dihydropyrrolo[2,3-a]carbazole], the remaining activity at 10 µM amounted to 90% at PIM-1 (setting [1]) and 43% at PIM-3. Further, on PIM-2, the “Percentage of residual activity PIM-2” value is reported as “N.I”.

Take `Fc1ccc2[nH]c3c(ccc4cc[nH]c43)c2c1` [Example 28, 7-fluoro-1,10-dihydropyrrolo[2,3-a]carbazole]: the remaining activity at 10 µM stood at 35% at PIM-1 (setting [1]), 20% on PIM-3 and 84% at PIM-2.

As for `Fc1cccc2c1[nH]c1c2ccc2cc[nH]c21` [Example 29, 9-fluoro-1,10-dihydropyrrolo[2,3-a]carbazole], on PIM-1 (setting [1]), the “Percentage of residual activity PIM-1” value is on record as “N.I”. Also, the remaining activity at 10 µM on PIM-3 was found to be 43%. At PIM-2, the “Percentage of residual activity PIM-2” value is recorded as “N.I”.

Regarding `Clc1cc(Cl)c2c(c1)[nH]c1c2ccc2cc[nH]c21` [Example 30, 6,8-dichloro-1,10-dihydropyrrolo[2,3-a]carbazole], the results for the remaining activity at 10 µM at PIM-1 (setting [1]), on PIM-3 and on PIM-2 were 10%, 14% and 36%, respectively.

Take `N#Cc1ccc2[nH]c3c(ccc4cc[nH]c43)c2c1` [Example 31, 1,10-dihydropyrrolo[2,3-a]carbazole-7-carbonitrile]: the remaining activity at 10 µM at PIM-1 (setting [1]) came out at 9%; at PIM-3 it was 4%; on PIM-2, 26%.

Take `O=[N+]([O-])c1ccc2[nH]c3c(ccc4cc[nH]c43)c2c1` [Example 32, 7-nitro-1,10-dihydropyrrolo[2,3-a]carbazole]: the remaining activity at 10 µM came to 9% on PIM-1 (setting [1]), 11% at PIM-3 and 23% on PIM-2.

On to `CCc1cccc2c1[nH]c1c2ccc2cc[nH]c21` [Example 33, 9-ethyl-1,10-dihydropyrrolo[2,3-a]carbazole], for which the remaining activity at 10 µM on PIM-1 (setting [1]) is 28%; at PIM-3 it was 23%; at PIM-2, 96%.

With `FC(F)(F)c1cccc2c1[nH]c1c2ccc2cc[nH]c21` [Example 34, 9-(trifluoromethyl)-1,10-dihydropyrrolo[2,3-a]carbazole], the remaining activity at 10 µM at PIM-1 (setting [1]) amounted to 85%; at PIM-3, 45%. Besides, the “Percentage of residual activity PIM-2” value at PIM-2 is given as “N.I”.

Take `Cc1ccc2c(c1)[nH]c1c2ccc2cc[nH]c21` [Example 35, 8-methyl-1:10-dihydropyrrolo[2,3-a]carbazole]: the remaining activity at 10 µM at PIM-1 (setting [1]) is 81%; on PIM-3, 13%. Also, the “Percentage of residual activity PIM-2” value on PIM-2 is “N.I”.

For `COc1cccc(-c2ccc3[nH]c4c(ccc5c(C=O)c[nH]c54)c3c2)c1` [Example 36, 7-(3-methoxyphenyl)-1,10-dihydropyrrolo[2,3-a]-carbazole-3-carbaldehyde], the remaining activity at 10 µM on PIM-1 (setting [1]) was 17%; at PIM-3, 12%; at PIM-2 it was 31%.

Consider `O=Cc1c[nH]c2c1ccc1c3cc(-c4ccc(-c5ccccc5)cc4)ccc3[nH]c12` [Example 37, 7-(4-biphenyl)-1,10-dihydropyrrolo[2,3-a]carbazole-3-carbaldehyde], for which the figures for the remaining activity at 10 µM at PIM-1 (setting [1]), at PIM-3 and at PIM-2 were 39%, 48% and 70%, respectively.

In the case of `O=Cc1c[nH]c2c1ccc1c3cc(-c4ccccc4)ccc3[nH]c12` [Example 38, 7-phenyl-1,10-dihydropyrrolo[2,3-a]carbazole-3-carbaldehyde], the remaining activity at 10 µM at PIM-1 (setting [1]) was 16%; at PIM-3, 15%; on PIM-2, 53%.

As usually defined, the IC50 is the midpoint of a concentration-inhibition curve. A higher IC50 goes with a need for much substance.

Values taken from patent publication US8481586B2, “Pyrrolo[2,3-a] carbazoles and use thereof as PIM kinase inhibitors” (Centre National de la Recherche Scientifique, priority 2008, dated 2013).
